Measurements taken from patent publication EP4752142A1, “5-HT2A RECEPTOR AGONIST, AND PREPARATION METHOD THEREFOR AND USE THEREOF” (Innovstone Therapeutics Limited, priority 2023, dated 2025).
Where two headings read alike, the source gives them in different places.

Tests used:
5-HT2A receptor [1] = molecular target: T1, 5-HT2A receptor (Homo sapiens, UniProt P28223); assay: 5-HT2AR calcium flux activation assay; type: cell-based; set-up: expressed in transfected cells; host or cells: HEK293; conditions: for Emax: Max Dose 100000 nM
T1 sequence (P28223 whole entry): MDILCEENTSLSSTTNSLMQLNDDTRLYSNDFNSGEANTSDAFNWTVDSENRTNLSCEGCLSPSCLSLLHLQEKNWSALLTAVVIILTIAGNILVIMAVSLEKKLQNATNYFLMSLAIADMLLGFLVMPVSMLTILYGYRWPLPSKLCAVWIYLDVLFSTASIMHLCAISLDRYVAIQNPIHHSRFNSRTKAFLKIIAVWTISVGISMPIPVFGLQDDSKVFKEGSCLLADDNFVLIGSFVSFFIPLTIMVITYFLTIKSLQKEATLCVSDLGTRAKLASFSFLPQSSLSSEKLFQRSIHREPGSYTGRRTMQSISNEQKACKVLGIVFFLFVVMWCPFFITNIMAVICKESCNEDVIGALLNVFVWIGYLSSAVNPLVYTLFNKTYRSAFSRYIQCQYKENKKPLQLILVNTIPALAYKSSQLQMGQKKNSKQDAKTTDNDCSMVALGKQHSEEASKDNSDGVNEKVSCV
Protocol: • 1) For cultured cells (HEK293 cells stably expressing human 5-HT2A receptor), they were first washed twice with pre-warmed DPBS, then an appropriate amount of trypsin was added for digestion at 37°C for 1 minute; an appropriate amount of the culture medium was then added to stop digestion, and 1 mL was taken for counting and vitality determination using Vi-CELL™. • 2) Cells were centrifuged at 1000 rpm for 5 minutes. • 3) The supernatant was gently discarded, being careful not to disturb the cell pellet. • 4) Cells were diluted with the culture medium to 1×10^6 cells/mL (20,000 cells/20 µL) and seeded into 384-well poly-lysine coated cell plates. They were cultured at 37°C under 5% CO2 for 16-20 hours.
• 1) Preparation of 250 mM Probenecid solution: According to the kit instructions, 77 mg of probenecid was added to 1 mL of FLIPR buffer salt solution. Prepared fresh for immediate use. • 2) Preparation of Fluo-4 Direct™ (2×, 8 µM) loading buffer: According to the kit instructions, the required amount of Fluo-4 Direct™ was thawed in advance. 10 mL of FLIPR buffer salt solution and 0.2 mL of 250 mM Probenecid solution were added to each vial. It was vortexed in the dark for >5 minutes. Prepared fresh for immediate use.
• 1) Preparation of control and test compound plates: Compounds were gradient diluted to 10 points using Echo, and 750 nL was transferred to the corresponding compound plate. • 2) 30 µL of assay buffer salt solution was added to the corresponding compound plate, which was then centrifuged at 1000 rpm for 1 minute; • 3) The cell plate prepared the day before was taken from the incubator, and 20 µL of 2× Fluo-4 Direct™ buffer was added to each well, making a total volume of 40 µL. • 4) The plate was incubated in a 5% CO2, 37°C incubator for 50 minutes, then left at room temperature for 10 minutes. • 5) The compound plate, the cell plate, and pipette tips were placed into the instrument; • 6) The FLIPR instrument software was run according to the set program, adding 10 µL of the specified concentrations of test compounds and control compounds to the cell plate, and fluorescence signals were read. After reading, data was exported using the "Max-Min", "Read 1 to 90" method in the software. • 7) Data analysis: Agonist Activation% = (RLU−DMSO)/(HC−DMSO)*100 [formula] • RLU: Relative Light Units, read values 1 to 90; • HC: Average fluorescence signal of the highest concentration point of the agonist; • DMSO: Average fluorescence signal of the DMSO group; • 8) Data was fitted using Prism 5.0.
For agonist: EC50 was fitted using "log(agonist) vs. response -- Variable slope". Table 2: 5-HT2AR Calcium Flux Activation Assay

5-HT2A receptor [2] = molecular target: T1, 5-HT2A receptor; assay: 5-HT2A receptor isotope competition affinity assay; type: binding
Protocol: A radiolabeled ligand (agonist or antagonist) incubated with receptor protein could form a receptor-ligand complex. An added test compound could compete with the isotopically labeled ligand for the receptor binding, eventually forming a relative steady-state equilibrium. The affinity of the test compound for the receptor was indirectly evaluated by measuring the dissociation of the isotopically labeled ligand from the receptor.
A 100x serial gradient dilution of compounds was prepared in DMSO, starting from 1 mM with 4-fold serial dilutions, resulting in 10 concentration points. Using a pipettor, 1 µL of each gradient concentration of the test compound (final concentration starting at 10 µM, 4-fold serial dilutions, 10 concentration points) was transferred to a 96-well assay plate, to each well of which 49 µL of 5-HT2A receptor protein (102 µg/mL, prepared in an assay buffer: 50 mM Tris-HCl, pH 7.4) had been added in advance (final concentration 5 µg/well). This was followed by the addition of 50 µL of isotopically labeled [^3H]-Ketanserin (2 nM, 2× final concentration, prepared in the assay buffer). The plate was sealed and incubated on a shaker at room temperature for 1 hour. The reaction mixture was filtered through a Unifilter-96 GF/C filter plate pre-treated with 0.3% PEI. The filter plate was washed with a precooled (4°C) assay buffer and then dried in an incubator at 50°C. A scintillation liquid was added, and the plate was read using a MicroBeta2 instrument. The percentage inhibition was calculated using the equation: %Inhibition=(CountHigh Signal Control-CountSample)/(CountHigh Signal Control-CountLow Signal Control)*100. A four-parameter logistic fit was used to calculate the IC50 value. High Signal Control: No compound group (the same volume of DMSO substituted). Low Signal Control: Ketanserin group (non-isotopically labeled, 2× final concentration). Table 1: Results of 5-HT2A receptor isotope competition affinity assay, Ki Values

Mice (strain C57BL/6) = assay: Head-twitch response test in mice; type: in vivo; conditions: reflects hallucinogenic effect, Figure 1
Protocol: • 1. Assay conditions and materials: • 1.1 Animal source: Mice (strain C57BL/6, purchased from Shanghai Lingchang Biotechnology Co., Ltd., 8-9 weeks old, 20-24 grams, male) • 1.2 Conditions: Temperature (20-25°C), relative humidity (40-70%), light cycle (12-hour light cycle (7:00-19:00)), free access to food and water • 1.3 Marking: Animals were marked on the tail. • 2. Assay procedure:
• A) Adaptation: Starting from the second day after the animals arrived, they were conciliated by stroking and acclimated for seven consecutive days to reduce their stress response. • B) Grouping: One hour before the assay test, animals were placed in the testing room for adaptation. On the test day, animals were randomly grouped according to body weight. Each group contained 12 animals. • C) Assay Dosing: Animal body weight was measured, and compounds were administered according to the group, with a dosing volume of 10 mL/kg for all. • D) Testing: After dosing, animals were placed in transparent observation chambers, and head-twitch behaviors were recorded over 60 minutes. • E) Assay test indicator: Total number of head-twitches within 60 minutes after dosing.

[3] = HEK293 cells stably expressing human 5-HT2A receptor, FLIPR, Fluo-4, read-out: EC50
[4] = HEK293 cells stably expressing human 5-HT2A receptor
[5] = competition with [3H]-Ketanserin, 1 hour, room temperature, read-out: 5-HT2A receptor/Ki

Compound | EC50 (5-HT2A receptor [1]; [3]) | Emax (5-HT2A receptor [1]; [4]) | Ki (5-HT2A receptor [2]; [5]) | other results
Cc1nn(CCCN2CCC(c3c[nH]c4cccc(O)c34)C2)nc1C (racemic) [Compound 127] | 3.94 nM | 53.4% | – | –
COc1ccccc1CCCN1CCC(c2c[nH]c3cccc(O)c23)C1 (stereo not shown) [Compound 2] | 16.9 nM | 51.5% | < 100 nM | –
c1ccc2c(C3CCN(CCCc4ncon4)C3)c[nH]c2c1 (stereo not shown) [Compound 49, 3-(1-[3-(1,2,4-oxadiazol-3-yl)propyl]pyrrolidin-3-yl)-1H-indole] | 34 nM | 47.6% | < 100 nM | Total number of head-twitches within 60 minutes after dosing (Mice (strain C57BL/6); dose 30 mpk): did not cause significant head-twitch behavior
Cc1nonc1CCCN1CCC(c2c[nH]c3ccccc23)C1 (stereo not shown) [Compound 54, 3-(1-(3-(4-methyl-1,2,5-oxadiazol-3-yl)propyl)pyrrolidin-3-yl)-1H-indole] | 86.5 nM | 46.7% | < 100 nM | –
Oc1cccc2[nH]cc(C3CCN(CCCc4ncsn4)C3)c12 (stereo not shown) [Compound 56] | 8.6 nM | 67.7% | < 100 nM | –
Cn1cc(CCCN2CCC(c3c[nH]c4cccc(O)c34)C2)cn1 (stereo not shown) [Compound 60] | 33.3 nM | 29.9% | < 100 nM | –
Cc1nc(C)n(CCCN2CCC(c3c[nH]c4ccccc34)C2)n1 (stereo not shown) [Compound 122, 3-(1-(3-(3,5-dimethyl-1H-1,2,4-triazol-1-yl)propyl)pyrrolidin-3-yl)-1H-indole] | 24.8 nM | 38.6% | < 100 nM | –
c1ccc2c(C3CCN(CCCn4nccn4)C3)c[nH]c2c1 (stereo not shown) [Compound 125, 3-(1-(3-(2H-1,2,3-triazol-2-yl)propyl)pyrrolidin-3-yl)-1H-indole] | 23.1 nM | 62.9% | < 100 nM | –
Cc1cnn(CCCN2CCC(c3c[nH]c4ccccc34)C2)n1 (stereo not shown) [Compound 126] | 27.7 nM | 49.7% | – | –
CC(C)c1cnn(CCCN2CCC(c3c[nH]c4cccc(O)c34)C2)n1 (stereo not shown) [Compound 128] | 7.09 nM | 63.1% | – | –
Oc1cccc2[nH]cc(C3CCN(CCc4coc5ccccc45)C3)c12 (stereo not shown) [Compound 134] | 43.3 nM | 68.8% | < 100 nM | –
c1ccc2c(C3CCN(CCc4nnc5ccccn45)C3)c[nH]c2c1 (stereo not shown) [Compound 142, 3-(1-(2-((1,2,4)triazolo(4,3-a)pyridin-3-yl)ethyl)pyrrolidin-3-yl)-1H-indole] | – | 41.9% | – | Ki (5-HT2A receptor [2]): < 100 nM; EC50 (5-HT2A receptor [1]): 45.9 nM
c1ccc2c([C@H]3CCN(CCCc4ncon4)C3)c[nH]c2c1 [Compound 171, (R)-3-(1-[3-(1,2,4-oxadiazol-3-yl)propyl]pyrrolidin-3-yl)-1H-indole] | 63.5 nM | 40.2% | – | –
Oc1cccc2[nH]cc([C@H]3CCN(CCCn4nccn4)C3)c12 [Compound 181, (R)-3-(1-(3-(2H-1,2,3-triazol-2-yl)propyl)pyrrolidin-3-yl)-1H-indol-4-ol] | – | – | < 100 nM | –
Oc1cccc2[nH]cc([C@@H]3CCN(CCCn4nccn4)C3)c12 [Compound 182, (S)-3-(1-(3-(2H-1,2,3-triazol-2-yl)propyl)pyrrolidin-3-yl)-1H-indol-4-ol] | 21.1 nM | 57.4% | < 100 nM | Total number of head-twitches within 60 minutes after dosing (Mice (strain C57BL/6); dose 30 mpk): did not cause significant head-twitch behavior
Oc1cc(F)cc2[nH]cc(C3CCN(CCCn4nccn4)C3)c12 (stereo not shown) [Compound 184, 6-fluoro-3-(1-[3-(2H-1,2,3-triazol-2-yl)propyl]pyrrolidin-3-yl)-1H-indol-4-ol] | – | 52.4% | – | Ki (5-HT2A receptor [2]): < 100 nM; EC50 (5-HT2A receptor [1]): 8.72 nM
Cc1nn(CCCN2CC[C@H](c3c[nH]c4cccc(O)c34)C2)nc1C [Compound 185, (R)-3-(1-(3-(4,5-dimethyl-2H-1,2,3-triazol-2-yl)propyl)pyrrolidin-3-yl)-1H-indol-4-ol] | – | – | < 100 nM | –
Cc1nn(CCCN2CC[C@@H](c3c[nH]c4cccc(O)c34)C2)nc1C [Compound 186, (S)-3-(1-(3-(4,5-dimethyl-2H-1,2,3-triazol-2-yl)propyl)pyrrolidin-3-yl)-1H-indol-4-ol] | – | – | < 100 nM | –
Cc1cnn(CCCN2CCC(c3c[nH]c4cccc(O)c34)C2)n1 (stereo not shown) [Compound 187, 3-(1-(3-(4-methyl-2H-1,2,3-triazol-2-yl)propyl)pyrrolidin-3-yl)-1H-indol-4-ol] | 4.17 nM | 63.7% | < 100 nM | –
Oc1cccc2[nH]cc(C3CCN(CCCn4ncc(C5CC5)n4)C3)c12 (stereo not shown) [Compound 188, 3-(1-(3-(4-cyclopropyl-2H-1,2,3-triazol-2-yl)propyl)pyrrolidin-3-yl)-1H-indol-4-ol] | – | 48.5% | – | Ki (5-HT2A receptor [2]): < 100 nM; EC50 (5-HT2A receptor [1]): 10.7 nM
c1ccc2c(C3CCN(CCCn4nccn4)C3)n[nH]c2c1 (stereo not shown) [Compound 189, 3-(1-(3-(2H-1,2,3-triazol-2-yl)propyl)pyrrolidin-3-yl)-1H-indazole] | – | – | < 100 nM | –
COc1cc(CC(C)N)c(OC)cc1I (stereo not shown) [DOI, reference compound] | – | – | – | Total number of head-twitches within 60 minutes after dosing (Mice (strain C57BL/6); dose 3 mpk): significant head-twitch behavior
Cc1cc(CCN2CCC(c3c[nH]c4cccc(F)c34)CC2)n[nH]1 [reference compound] | > 100000 nM | 0.9% | – | –
c1ccc2c(C3CCN(CCCn4nccn4)CC3)c[nH]c2c1 [reference compound] | > 100000 nM | 25.5% | – | –
